Tests used:
[1] = test system: mixture of fungi (C. albicans (ATCC #10231) and A. brasiliensis (ATCC #16404)); assay: CTFA Preservative Challenge Test on shampoo, mixed fungi; type: cell-based; conditions: for Mixed Fungi Day 7 Count: shampoo containing sample, initial count 7.9×10^5 cfu/mL, surviving organisms on day 7; for Mixed Fungi Day 7 kill reduction: shampoo, versus initial count 7.9×10^5 cfu/mL
Protocol: (§1) The CTFA Preservative Challenge Test was performed on a shampoo containing the samples below against a mixture of fungi (C. albicans (ATCC #10231) and A. brasiliensis (ATCC #16404)) having an initial count of 7.9×10^5 cfu/mL or a mixture of bacteria having an initial count of 4×10^6 cfu/mL. The shampoos inoculated with bacteria were allowed to stand for 14 days and the shampoos inoculated with fungi were allowed to stand for 7 days. The samples were evaluated for surviving organisms on day 7 for fungi-innoculated shampoos and days 7 and 14 for bacteria-innoculated shampoos.

mixture of bacteria = assay: CTFA Preservative Challenge Test on shampoo, mixed bacteria (with Kull synergism calculation); type: cell-based; conditions: for Mixed Bacteria Day 7 Count / Mixed Bacteria Day 14 Count: shampoo containing sample, initial count 4×10^6 cfu/mL; for Mixed Bacteria Day 7 Count: surviving organisms on day 7; for Mixed Bacteria Day 14 Count: surviving organisms on day 14; for Mixed Bacteria Day 7 kill reduction / Mixed Bacteria Day 14 kill reduction: shampoo, versus initial count 4×10^6 cfu/mL
Protocol: as §1
From the table, synergism for the combinations above against mixed bacteria in shampoo was calculated by the method described in C. E. Kull et al., “Mixtures of Quaternary Ammonium Compounds and Long-chain Fatty Acids as Antifungal Agents”, Applied Microbiology, 9:538-541 (1961). The synergism value (QA/Qa+QB/Qb) was determined. […] Qa is the concentration of the first component alone (in percent by weight) required to yield 100% retardation of the bacteria. Qb is the concentration of the second component alone (in percent by weight) required to yield 100% retardation of the bacteria. When the value of (QA/Qa+QB/Qb) is less than one, the mixture is synergistic. Values for (QA/Qa+QB/Qb) of 1 and greater represent an additive effect and an antagonistic effect, respectively. Here, (QA/Qa+QB/Qb) is (([…])+([…]) or <0.75. Accordingly, the mixture of 0.2% mastic oil and 0.05% piroctine olamine is synergistic. The mixture of 2% mastic water and 2% ELA, the mixture of 2% mastic water and 0.5% sodium p-anisate, and the mixture of 4% mastic water and 1% quinic acid are also synergistic.

| SMILES | Mixed Fungi Day 7 Count [1] | Mixed Fungi Day 7 kill reduction [1] | Mixed Bacteria Day 7 Count (mixture of bacteria) | Mixed Bacteria Day 14 Count (mixture of bacteria) | Mixed Bacteria Day 7 kill reduction (mixture of bacteria) | Mixed Bacteria Day 14 kill reduction (mixture of bacteria) |
| --- | --- | --- | --- | --- | --- | --- |
| Cc1cc(CC(C)CC(C)(C)C)n(O)c(=O)c1.NCCO (stereo not drawn) [0.1% Piroctine olamine, Piroctine olamine] | 5.9 × 10^4 cfu/mL | (<90% kill | 1.2 × 10^5 cfu/mL | 1.3 × 10^5 cfu/mL | (<97% kill | (<97% kill |
| COc1ccc(C(=O)[O-])cc1.[Na+] [1% Sodium p-anisate, sodium p-anisate] | – | – | 2.3 × 10^4 cfu/mL | – | (<99% kill | – |
| O=C(O)[C@]1(O)C[C@@H](O)[C@@H](O)[C@H](O)C1 [2.5% Quinic acid, quinic acid] | 1.4 × 10^5 cfu/mL | (<90% kill | – | – | – | – |
| CCCCCCCCCCCC(=O)N[C@@H](CCCN=C(N)N)C(=O)OCC.Cl [5% ELA HCl, ethyl lauroyl arginate HCl] | – | – | – | 1.3 × 10^2 cfu/mL | – | (<99.9% kill |
